For the experiment, the system named is Streptococcus pyogenes (ATCC# 97-03 14289). In words: Anti-microbial screen (growth inhibition, OD 570 nm). The note with it: growth in Todd Hewitt Broth, plates read at 570 nm at 0 time and 4 hours, color corrected. It counts as cell-based. How it is done:
Streptococcus pyogenes (ATCC# 97-03 14289) was grown in Todd Hewitt Broth (THB) (Difco Laboratories #0492-17-6) overnight until reaching an optical density of (OD=0.636 @ 570 nm) by reading 0.1 ml in a 96 well microtiter plate in a Molecular Devices Thermomax. This preparation was kept frozen as stocks in 30% v/v glycerol in 1.5 ml aliquots at −70^mC. until use. Prior to experiments, […] aliquots were thawed and diluted into 50 ml 2×THB. 60 ul of this dilution was added to 92 wells of microtiter plate. To three wells THB (200 ul) was added to serve as a blank and a sterility control. Test compounds in DMSO and appropriate concentrations of DMSO were added to Growth/Solvent Controls at 0 time. Plates were read at 0 time at 570 nm in the Molecular Devices plate reader to obtain compounds correction factors for insoluble or colored compounds. Plates were read again at 4 hours.
Percent inhibition is calculated with the following formulae: [drawing 4]
Color correct=O.D. 0 hr−Blank 0 hr)−(Solvent Control 0 hr−Blank 0 hr)
% Inhibition=100−O.D. test compound 4 hr−Blank 4 hr−color correct O.D. growth/solvent control 4 hr−Blank 4 hr
Usually % Inhibition stands for the change of the read-out against control, counted positive when it falls. A higher % Inhibition goes with a response far below the control. Regarding `CCCc1ccc(C(=O)Nc2sc3c(c2C(=O)O)CCN(C(=O)c2cccc(F)c2C)C3)cc1`, the “% Inhibition” value came out at 99.63%. Turning to `Cc1noc(C)c1C(=O)N1CCc2c(sc(NC(=O)c3ccccc3)c2C(=O)O)C1`, the “% Inhibition” value is on record as 96.39%. Turning to `O=C(Nc1sc2c(c1C(=O)O)CCN(C(=O)c1ccco1)C2)c1ccccc1`, the “% Inhibition” value was 96.39%. For `CCOc1ncccc1C(=O)N1CCc2c(sc(NC(=O)c3ccccc3)c2C(=O)O)C1`, the “% Inhibition” value is on record as 95.92%. For `CCCc1ccc(C(=O)Nc2sc3c(c2C(=O)O)CCN(C(=O)C2CCC2)C3)cc1`, the “% Inhibition” value is given as 95.65%. In the case of `CSc1ccccc1C(=O)N1CCc2c(sc(NC(=O)CC(C)CC(C)(C)C)c2C(=O)O)C1` (stereo not shown), the “% Inhibition” value was 95.62%. The figure for `C/C=C/C(=O)N1CCc2c(sc(NC(=O)c3ccccc3)c2C(=O)O)C1` is 94.99%; for `CC(C)CC(=O)N1CCc2c(sc(NC(=O)c3ccc(Cl)cc3)c2C(=O)O)C1` it is 84.68%; for `O=C(Nc1sc2c(c1C(=O)O)CCN(C(=O)c1cccc3ccccc13)C2)c1ccccc1` it is 83.81%. Regarding `CCCSc1ncccc1C(=O)N1CCc2c(sc(NC(=O)c3ccc(C(C)(C)C)cc3)c2C(=O)O)C1`, the “% Inhibition” value turned out to be 83.49%. Next, `Cc1ccc(C(=O)N2CCc3c(sc(NC(=O)c4ccc(C(C)(C)C)cc4)c3C(=O)O)C2)c(C)c1`: 82.83%; `O=C(Nc1sc2c(c1C(=O)O)CCN(C(=O)CCc1ccc(F)c(F)c1)C2)c1ccc(Cl)cc1`: 82.59%; `O=C(Nc1sc2c(c1C(=O)O)CCN(C(=O)c1ccc(F)c(F)c1)C2)c1ccc(Cl)cc1`: 82.59%. On to `O=C(Nc1sc2c(c1C(=O)O)CCN(C(=O)CC1CCCC1)C2)c1ccc(Cl)cc1`, for which the “% Inhibition” value came out at 82.59%.

Turning to `O=C(CCC1CCCC1)Nc1sc2c(c1C(=O)O)CCN(C(=O)c1cccc3ccccc13)C2`, the “% Inhibition” value is 82.49%. In the case of `Cc1ccc(C(=O)N2CCc3c(sc(NC(=O)c4ccccc4)c3C(=O)O)C2)cn1`, the “% Inhibition” value is reported as 82.41%. Next, `COc1cccc(C(=O)Nc2sc3c(c2C(=O)O)CCN(C(=O)c2cccc4ccccc24)C3)c1`: 82.32%; `CCC(C(=O)Nc1sc2c(c1C(=O)O)CCN(C(=O)/C=C/c1ccc(Cl)cc1)C2)c1ccccc1` (stereo not shown): 82.18%; `CC(C)(C)c1ccc(C(=O)Nc2sc3c(c2C(=O)O)CCN(C(=O)c2ccsc2)C3)cc1`: 82.18%. The figure for `Cc1ccc(C(=O)N2CCc3c(sc(NC(=O)CC(C)CC(C)(C)C)c3C(=O)O)C2)c(C)c1` (stereo not shown) is 81.9%; for `CC(CC(=O)Nc1sc2c(c1C(=O)O)CCN(C(=O)CC1CCCC1)C2)CC(C)(C)C` (stereo not shown) it is 81.9%; for `COc1cc(Cl)ccc1C(=O)N1CCc2c(sc(NC(=O)c3ccccc3)c2C(=O)O)C1` it is 81.48%.

As to `CC(C)(C)c1ccc(C(=O)Nc2sc3c(c2C(=O)O)CCN(C(=O)c2ccccc2C(F)(F)F)C3)cc1`, the “% Inhibition” value worked out at 80.87%. For `CCC(C(=O)Nc1sc2c(c1C(=O)O)CCN(C(=O)Cc1cc(C)ccc1C)C2)c1ccccc1` (stereo not shown), the “% Inhibition” value was 80.75%.

For `CCc1ccc(C(=O)Nc2sc3c(c2C(=O)O)CCN(C(=O)c2cc(OC)ccc2OC)C3)cc1`, the “% Inhibition” value was found to be 80.21%. `Cc1ccccc1C(=O)N1CCc2c(sc(NC(=O)c3ccccc3)c2C(=O)O)C1`: the “% Inhibition” value was 80.08%. For the molecule `CCOc1ncccc1C(=O)N1CCc2c(sc(NC(=O)c3ccc(Cl)cc3)c2C(=O)O)C1`, the “% Inhibition” value is given as 79.31%. In the case of `CC(C)(C)c1ccc(C(=O)Nc2sc3c(c2C(=O)O)CCN(C(=O)CC2CCCC2)C3)cc1`, the “% Inhibition” value is given as 79.23%. Regarding `CSc1ccccc1C(=O)N1CCc2c(sc(NC(=O)c3ccccc3)c2C(=O)O)C1`, the “% Inhibition” value is recorded as 79.15%. In the case of `CCCSc1ncccc1C(=O)N1CCc2c(sc(NC(=O)c3ccc(CCC)cc3)c2C(=O)O)C1`, the “% Inhibition” value stood at 79.09%. For `Cc1ccccc1C(=O)N1CCc2c(sc(NC(=O)c3ccc4ccccc4c3)c2C(=O)O)C1`, the “% Inhibition” value amounted to 78.88%.

Turning to `Cc1c(F)cccc1C(=O)N1CCc2c(sc(NC(=O)c3ccc(Cl)cc3)c2C(=O)O)C1`, the “% Inhibition” value is given as 78.42%. Next, `O=C(Nc1sc2c(c1C(=O)O)CCN(C(=O)c1ccco1)C2)c1ccccc1Cl`: 78.12%.

On to `CC(C)CC(=O)N1CCc2c(sc(NC(=O)c3ccc4ccccc4c3)c2C(=O)O)C1`, for which the “% Inhibition” value amounted to 77.94%. Consider `CCc1ccc(C(=O)Nc2sc3c(c2C(=O)O)CCN(C(=O)c2ccccc2Cl)C3)cc1`, for which the “% Inhibition” value was 77.92%. As for `COc1ccc(OC)c(C(=O)N2CCc3c(sc(NC(=O)c4ccc(C(C)(C)C)cc4)c3C(=O)O)C2)c1`, the “% Inhibition” value was found to be 77.92%. As for `COc1cccc(C(=O)N2CCc3c(sc(NC(=O)c4ccc(Cl)cc4)c3C(=O)O)C2)c1OC`, the “% Inhibition” value stood at 77.82%. Regarding `O=C(Nc1sc2c(c1C(=O)O)CCN(C(=O)/C=C/c1ccccc1Cl)C2)c1c(F)cccc1F`, the “% Inhibition” value came out at 77.66%.

As to `Cc1c(F)cccc1C(=O)N1CCc2c(sc(NC(=O)CC(C)CC(C)(C)C)c2C(=O)O)C1` (stereo not shown), the “% Inhibition” value was determined as 77.56%. Consider `CC(C)C(=O)N1CCc2c(sc(NC(=O)c3ccc(C(C)(C)C)cc3)c2C(=O)O)C1`, for which the “% Inhibition” value is given as 77.26%. Consider `O=C(Nc1sc2c(c1C(=O)O)CCN(C(=O)c1cccc(Cl)c1)C2)c1c(F)cccc1F`, for which the “% Inhibition” value is 77.03%. Next, `O=C(Nc1sc2c(c1C(=O)O)CCN(C(=O)c1ccc(Cl)cc1)C2)c1ccc2ccccc2c1`: 76.7%; `CCCc1ccc(C(=O)Nc2sc3c(c2C(=O)O)CCN(C(=O)c2cccc(OC)c2OC)C3)cc1`: 76.44%. On to `COc1cccc2cc(C(=O)N3CCc4c(sc(NC(=O)c5ccccc5)c4C(=O)O)C3)oc12`, for which the “% Inhibition” value came to 76.35%. The figure for `CC(=O)Nc1ccc(C(=O)N2CCc3c(sc(NC(=O)c4ccccc4Cl)c3C(=O)O)C2)cc1` is 76.33%; for `Cc1ccccc1C(=O)N1CCc2c(sc(NC(=O)CCC3CCCC3)c2C(=O)O)C1` it is 76.07%. For the molecule `CC(C)(C)c1ccc(C(=O)Nc2sc3c(c2C(=O)O)CCN(C(=O)c2ccc(F)c(F)c2)C3)cc1`, the “% Inhibition” value worked out at 75.95%. Consider `COc1cccc(C(=O)Nc2sc3c(c2C(=O)O)CCN(C(=O)c2ccc(F)c(F)c2)C3)c1`, for which the “% Inhibition” value was 75.77%. Next, `CCc1ccc(C(=O)Nc2sc3c(c2C(=O)O)CCN(C(=O)c2ccc(Cl)cc2)C3)cc1`: 74.97%; `O=C(Nc1sc2c(c1C(=O)O)CCN(C(=O)CCc1ccc(F)c(F)c1)C2)c1ccccc1`: 74.96%; `CCCc1ccc(C(=O)Nc2sc3c(c2C(=O)O)CCN(C(=O)C(C)C)C3)cc1`: 74.78%. With `Cc1ccc(C(=O)N2CCc3c(sc(NC(=O)c4ccc(C(C)(C)C)cc4)c3C(=O)O)C2)cn1`, the “% Inhibition” value came out at 74.64%.

Consider `COc1cccc(C(=O)Nc2sc3c(c2C(=O)O)CCN(C(=O)c2ccccc2C)C3)c1`, for which the “% Inhibition” value was found to be 74.32%. On to `COc1cccc(C(=O)Nc2sc3c(c2C(=O)O)CCN(C(=O)c2ccccc2C(F)(F)F)C3)c1`, for which the “% Inhibition” value is recorded as 73.59%. Regarding `COc1cccc(C(=O)Nc2sc3c(c2C(=O)O)CCN(C(=O)c2cccc(F)c2C)C3)c1`, the “% Inhibition” value turned out to be 73.59%. `COc1ccc(OC)c(C(=O)N2CCc3c(sc(NC(=O)c4ccccc4)c3C(=O)O)C2)c1`: the “% Inhibition” value is 73.56%.

Consider `Cc1c(F)cccc1C(=O)N1CCc2c(sc(NC(=O)c3ccc4ccccc4c3)c2C(=O)O)C1`, for which the “% Inhibition” value is 73.27%. For the molecule `CC(C)(C)c1ccc(C(=O)Nc2sc3c(c2C(=O)O)CCN(C(=O)c2cccc4ccccc24)C3)cc1`, the “% Inhibition” value worked out at 73%. In the case of `CCC(C(=O)Nc1sc2c(c1C(=O)O)CCN(C(=O)c1ccc(Cl)cc1)C2)c1ccccc1` (stereo not shown), the “% Inhibition” value was determined as 72.87%.

With `O=C(CCC1CCCC1)Nc1sc2c(c1C(=O)O)CCN(C(=O)c1ccccc1C(F)(F)F)C2`, the “% Inhibition” value turned out to be 72.86%.

For the molecule `CC(=O)Nc1cccc(C(=O)N2CCc3c(sc(NC(=O)c4ccccc4Cl)c3C(=O)O)C2)c1`, the “% Inhibition” value is on record as 72.75%. Turning to `O=C(Nc1sc2c(c1C(=O)O)CCN(C(=O)c1ccc(Cl)cc1)C2)c1ccccc1Cl`, the “% Inhibition” value came to 72.75%. On to `O=C(Nc1sc2c(c1C(=O)O)CCN(C(=O)c1ccc(C(F)(F)F)cc1)C2)c1ccccc1`, for which the “% Inhibition” value came out at 72.63%. The figure for `O=C(O)c1c(NC(=O)C2CCCCC2)sc2c1CCN(C(=O)c1cc3ccccc3s1)C2` is 72.52%. For the molecule `O=C(Nc1sc2c(c1C(=O)O)CCN(C(=O)C1CCCCC1)C2)c1ccc(Cl)cc1`, the “% Inhibition” value amounted to 72.46%. The figure for `Cc1c(F)cccc1C(=O)N1CCc2c(sc(NC(=O)c3ccco3)c2C(=O)O)C1` is 72.33%.

In the case of `CSc1ccccc1C(=O)N1CCc2c(sc(NC(=O)c3ccc(Cl)cc3)c2C(=O)O)C1`, the “% Inhibition” value is 71.86%. Take `CC(=O)Nc1ccc(C(=O)N2CCc3c(sc(NC(=O)c4ccc(C(C)(C)C)cc4)c3C(=O)O)C2)cc1`: the “% Inhibition” value was determined as 71.69%. As for `COc1ccc(OC)c(C(=O)N2CCc3c(sc(NC(=O)c4ccc(Cl)cc4)c3C(=O)O)C2)c1`, the “% Inhibition” value is recorded as 70.67%. Take `CC(C)(C)c1ccc(C(=O)Nc2sc3c(c2C(=O)O)CCN(C(=O)CCc2ccc(F)c(F)c2)C3)cc1`: the “% Inhibition” value was determined as 69.4%.
